ChEMBL document CHEMBL1255421, “In vitro fungicidal activities of echinocandins against Candida metapsilosis, C. orthopsilosis, and C. parapsilosis evaluated by time-kill studies” (2010)
≈ marks a conversion by molar mass, not a printed value. Calls of active or inactive are those of the source. The calls are words filed in the database; no cut-off is given here. Numbered stars: 1 amine (or outer) side, 2 acyl side, 3 side chain; on linkers, the order of the positions; unused ones are H or OH. Bridge positions count the residues as written; N and C are the ends. Square brackets hold non-standard residues; d marks the D form. Peptide text beside a SMILES is read from it. * marks the point of attachment. pTerphenylCO(4''-OnC5H11) = CCCCCOc1ccc(-c2ccc(-c3ccc(C(=O)*)cc3)cc2)cc1; Orn(4R-OH,5R-OH) = O=C([C@H](C[C@@H](O)[C@@H](O)N[*:3])N[*:1])[*:2]; hTyr(3S-OH,4S-OH) = N[C@H](C(=O)O)[C@H](O)[C@@H](O)c1ccc(O)cc1; Pro(3S-OH,4S-Me) = C[C@H]1CN[C@H](C(=O)O)[C@H]1O; Hyp = O=C(O)[C@@H]1C[C@@H](O)CN1

What was measured:
[1] = tested on: Candida orthopsilosis; assay: Antifungal activity against Candida orthopsilosis clinical isolate bloodstream form assessed as time required for 50% reduction in fungal growth at 1 mg/L by time-kill assay; format: functional
[2] = tested on: Candida metapsilosis; assay: Antifungal activity against Candida metapsilosis clinical isolate bloodstream form assessed as time required for 99% reduction in fungal growth at 4 mg/L by time-kill assay; format: functional
[3] = tested on: Candida orthopsilosis; assay: Antifungal activity against Candida orthopsilosis clinical isolate bloodstream form assessed as time required for 50% reduction in fungal growth at 16 mg/L by time-kill assay; format: functional
[4] = tested on: Candida orthopsilosis; assay: Antifungal activity against Candida orthopsilosis clinical isolate bloodstream form assessed as time required for 99.9% reduction in fungal growth at 0.25 mg/L by time-kill assay; format: functional
[5] = tested on: Candida orthopsilosis; assay: Fungicidal activity against Candida orthopsilosis isolate CP-150 bloodstream form by CLSI method; format: functional; details: Lodderomyces orthopsilosis
[6] = tested on: Candida orthopsilosis; assay: Antifungal activity against Candida orthopsilosis clinical isolate bloodstream form assessed as time required for 90% reduction in fungal growth at 4 mg/L by time-kill assay; format: functional
[7] = tested on: Candida parapsilosis; assay: Antifungal activity against Candida parapsilosis clinical isolate bloodstream form assessed as time required for 99.9% reduction in fungal growth at 1 mg/L by time-kill assay; format: functional
[8] = tested on: Candida parapsilosis; assay: Fungicidal activity against Candida parapsilosis isolate CP-300 bloodstream form by CLSI method; format: functional; details: Lodderomyces parapsilosis
[9] = tested on: Candida parapsilosis; assay: Antifungal activity against Candida parapsilosis clinical isolate bloodstream form assessed as inhibition of fungal regrowth at 0.03 to 32 mg/L after 6 hrs by time-kill assay; format: functional, organism-based
[10] = tested on: Candida orthopsilosis; assay: Antifungal activity against Candida orthopsilosis clinical isolate bloodstream form assessed as time required for 99% reduction in fungal growth at 4 mg/L by time-kill assay; format: functional
[11] = tested on: Candida parapsilosis; assay: Antifungal activity against Candida parapsilosis clinical isolate bloodstream form assessed as time required for 99.9% reduction in fungal growth at 0.25 mg/L by time-kill assay; format: functional
[12] = tested on: Candida metapsilosis; assay: Antifungal activity against Candida metapsilosis clinical isolate bloodstream form assessed as time required for 50% reduction in fungal growth at 0.25 mg/L by time-kill assay; format: functional
[13] = tested on: Candida parapsilosis; assay: Antifungal activity against Candida parapsilosis clinical isolate bloodstream form assessed as time required for 99.9% reduction in fungal growth at 32 mg/L by time-kill assay; format: functional
[14] = tested on: Candida parapsilosis; assay: Fungicidal activity against Candida parapsilosis isolate CP-301 bloodstream form by CLSI method; format: functional; details: Lodderomyces parapsilosis
[15] = tested on: Candida orthopsilosis; assay: Antifungal activity against Candida orthopsilosis clinical isolate bloodstream form assessed as time required for 50% reduction in fungal growth at 32 mg/L by time-kill assay; format: functional
[16] = tested on: Candida metapsilosis; assay: Antifungal activity against Candida metapsilosis clinical isolate bloodstream form assessed as induction of fungal killing rate at 0.03 to 32 mg/L measured at 6 hrs by time-kill assay; format: functional, organism-based
[17] = tested on: Candida metapsilosis; assay: Antifungal activity against Candida metapsilosis clinical isolate bloodstream form assessed as time required for 50% reduction in fungal growth at 16 mg/L by time-kill assay; format: functional
[18] = tested on: Candida metapsilosis; assay: Antifungal activity against Candida metapsilosis clinical isolate bloodstream form assessed as time required for 90% reduction in fungal growth at 4 mg/L by time-kill assay; format: functional
[19] = tested on: Candida parapsilosis; assay: Antifungal activity against Candida parapsilosis clinical isolate bloodstream form assessed as time required for 99% reduction in fungal growth at 32 mg/L by time-kill assay; format: functional
[20] = tested on: Candida orthopsilosis; assay: Fungicidal activity against Candida orthopsilosis isolate ATC194 bloodstream form by CLSI method; format: functional; details: Lodderomyces orthopsilosis, isolate ATC-194
[21] = tested on: Candida parapsilosis; assay: Antifungal activity against Candida parapsilosis clinical isolate bloodstream form assessed as time required for 90% reduction in fungal growth at 16 mg/L by time-kill assay; format: functional
[22] = tested on: Candida orthopsilosis; assay: Antifungal activity against Candida orthopsilosis clinical isolate bloodstream form assessed as induction of maximal fungal death at 1 mg/L after 48 hrs by time-kill assay; format: functional, organism-based
[23] = tested on: Candida orthopsilosis; assay: Antifungal activity against Candida orthopsilosis clinical isolate bloodstream form assessed as time required for 99.9% reduction in fungal growth at 1 mg/L by time-kill assay; format: functional
[24] = tested on: Candida metapsilosis; assay: Antifungal activity against Candida metapsilosis clinical isolate bloodstream form assessed as time required for 50% reduction in fungal growth at 4 mg/L by time-kill assay; format: functional
[25] = tested on: Candida parapsilosis; assay: Antifungal activity against Candida parapsilosis clinical isolate bloodstream form assessed as time required for 99% reduction in fungal growth at 0.25 mg/L by time-kill assay; format: functional
[26] = tested on: Candida orthopsilosis; assay: Antifungal activity against Candida orthopsilosis clinical isolate bloodstream form assessed as time required for 90% reduction in fungal growth at 0.25 mg/L by time-kill assay; format: functional
[27] = tested on: Candida orthopsilosis; assay: Antifungal activity against Candida orthopsilosis clinical isolate bloodstream form assessed as time required for 50% reduction in fungal growth at 4 mg/L by time-kill assay; format: functional
[28] = tested on: Candida metapsilosis; assay: Antifungal activity against Candida metapsilosis clinical isolate bloodstream form assessed as time required for 99% reduction in fungal growth at 1 mg/L by time-kill assay; format: functional
[29] = tested on: Candida parapsilosis; assay: Antifungal activity against Candida parapsilosis clinical isolate bloodstream form assessed as time required for 90% reduction in fungal growth at 32 mg/L by time-kill assay; format: functional
[30] = tested on: Candida metapsilosis; assay: Fungicidal activity against Candida metapsilosis isolate CP-132 bloodstream form by CLSI method; format: functional; details: Lodderomyces metapsilosis
[31] = tested on: Candida metapsilosis; assay: Antifungal activity against Candida metapsilosis clinical isolate bloodstream form assessed as time required for 99% reduction in fungal growth at 0.25 mg/L by time-kill assay; format: functional
[32] = tested on: Candida parapsilosis; assay: Antifungal activity against Candida parapsilosis clinical isolate bloodstream form assessed as time required for 50% reduction in fungal growth at 1 mg/L by time-kill assay; format: functional
[33] = tested on: Candida parapsilosis; assay: Antifungal activity against Candida parapsilosis clinical isolate bloodstream form assessed as time required for 50% reduction in fungal growth at 16 mg/L by time-kill assay; format: functional
[34] = tested on: Candida parapsilosis; assay: Antifungal activity against Candida parapsilosis clinical isolate bloodstream form assessed as fungal count at 4 mg/L measured at 6 hrs by time-kill assay; format: functional
[35] = tested on: Candida metapsilosis; assay: Antifungal activity against Candida metapsilosis clinical isolate bloodstream form assessed as induction of miniparadoxical effect at 32 mg/L after 48 hrs by time-kill assay; format: functional, organism-based
[36] = tested on: Candida parapsilosis; assay: Antifungal activity against Candida parapsilosis clinical isolate bloodstream form assessed as time required for 90% reduction in fungal growth at 0.25 mg/L by time-kill assay; format: functional
[37] = tested on: Candida orthopsilosis; assay: Antifungal activity against Candida orthopsilosis clinical isolate bloodstream form assessed as mild induction of fungal death at 0.03 to 32 mg/L after 6 hrs by time-kill assay; format: functional, organism-based

**Q.** Which results are given for `CCCCCOc1ccc(-c2ccc(-c3ccc(C(=O)N[C@H]4C[C@@H](O)[C@@H](O)NC(=O)[C@@H]5[C@@H](O)[C@@H](C)CN5C(=O)[C@H]([C@@H](C)O)NC(=O)[C@H]([C@H](O)[C@@H](O)c5ccc(O)cc5)NC(=O)[C@@H]5C[C@@H](O)CN5C(=O)[C@H]([C@@H](C)O)NC4=O)cc3)cc2)cc1` [ANIDULAFUNGIN] ({pTerphenylCO(4''-OnC5H11)}-[Orn(4R-OH,5R-OH)]T[Hyp][hTyr(3S-OH,4S-OH)]T[Pro(3S-OH,4S-Me)]; lactam 1-C)?
**A.** Time [1]: 6.36 h; Time [2]: 15.89 h; Time [3]: 1.88 h; Time [4]: >48 h; MIC [5]: 0.25 µg/mL (≈ 0.219 µM); Time [6]: 9.08 h; Time [7]: inactive; MIC [8]: 0.5 µg/mL (≈ 0.438 µM); inhibition [9]: inactive; Time [10]: 18.17 h; Time [11]: inactive; Time [12]: 7.74 h; Time [13]: 41.84 h; MIC [14]: 1 µg/mL (≈ 0.877 µM); Time [15]: 1.48 h; Activity [16]: inactive; Time [17]: 1.51 h; Time [18]: 7.94 h; Time [19]: 27.89 h; MIC [20]: 0.12 µg/mL (≈ 0.105 µM); Time [21]: 26.04 h; Activity [22]: Active; Time [23]: >48 h; Time [24]: 2.39 h; Time [25]: inactive; Time [26]: >48 h; Time [27]: 2.73 h; Time [28]: 10.44 h; Time [29]: 13.95 h; MIC [30]: 0.06 µg/mL (≈ 0.0526 µM); Time [31]: 51.41 h; Time [32]: inactive; Time [33]: 7.84 h; log10cfu [34]: 1.48 /ml; Activity [35]: inactive; Time [36]: inactive; Activity [37]: Active
